The values below come from US11866450B2, “Modulators of Cystic Fibrosis Transmembrane Conductance regulator, pharmaceutical compositions, methods of treatment, and process for making the modulators” (priority 2018, dated 2024).

As usually defined, the EC50 is the concentration needed to bring the measured effect to its halfway point.

The target in this experiment is CFTR-mediated chloride transport (Homo sapiens, UniProt P13569). Type of experiment: cell-based. The following applies: enteroid cells incubated with test compound 18-24 hours, acute 10 μM forskolin and 300 nM Compound III; for Max. Activity: % of chloride transport with 3 μM Compound A, 3 μM Compound II and 300 nM acute Compound III triple combination control. Summed up:
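Human intestinal enteroid cells incubated with compound 18–24 h at 37° C., then membrane potential dye (FLIPR) read 15 min after chloride-free stimulation with 10 μM forskolin, 100 μM IBMX and 300 nM Compound III. AUC expressed as % of triple-combination control (3 μM Compound A, 3 μM Compound II, 300 nM Compound III).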

CFTR-mediated chloride transport, sequence (P13569 whole entry, looked up): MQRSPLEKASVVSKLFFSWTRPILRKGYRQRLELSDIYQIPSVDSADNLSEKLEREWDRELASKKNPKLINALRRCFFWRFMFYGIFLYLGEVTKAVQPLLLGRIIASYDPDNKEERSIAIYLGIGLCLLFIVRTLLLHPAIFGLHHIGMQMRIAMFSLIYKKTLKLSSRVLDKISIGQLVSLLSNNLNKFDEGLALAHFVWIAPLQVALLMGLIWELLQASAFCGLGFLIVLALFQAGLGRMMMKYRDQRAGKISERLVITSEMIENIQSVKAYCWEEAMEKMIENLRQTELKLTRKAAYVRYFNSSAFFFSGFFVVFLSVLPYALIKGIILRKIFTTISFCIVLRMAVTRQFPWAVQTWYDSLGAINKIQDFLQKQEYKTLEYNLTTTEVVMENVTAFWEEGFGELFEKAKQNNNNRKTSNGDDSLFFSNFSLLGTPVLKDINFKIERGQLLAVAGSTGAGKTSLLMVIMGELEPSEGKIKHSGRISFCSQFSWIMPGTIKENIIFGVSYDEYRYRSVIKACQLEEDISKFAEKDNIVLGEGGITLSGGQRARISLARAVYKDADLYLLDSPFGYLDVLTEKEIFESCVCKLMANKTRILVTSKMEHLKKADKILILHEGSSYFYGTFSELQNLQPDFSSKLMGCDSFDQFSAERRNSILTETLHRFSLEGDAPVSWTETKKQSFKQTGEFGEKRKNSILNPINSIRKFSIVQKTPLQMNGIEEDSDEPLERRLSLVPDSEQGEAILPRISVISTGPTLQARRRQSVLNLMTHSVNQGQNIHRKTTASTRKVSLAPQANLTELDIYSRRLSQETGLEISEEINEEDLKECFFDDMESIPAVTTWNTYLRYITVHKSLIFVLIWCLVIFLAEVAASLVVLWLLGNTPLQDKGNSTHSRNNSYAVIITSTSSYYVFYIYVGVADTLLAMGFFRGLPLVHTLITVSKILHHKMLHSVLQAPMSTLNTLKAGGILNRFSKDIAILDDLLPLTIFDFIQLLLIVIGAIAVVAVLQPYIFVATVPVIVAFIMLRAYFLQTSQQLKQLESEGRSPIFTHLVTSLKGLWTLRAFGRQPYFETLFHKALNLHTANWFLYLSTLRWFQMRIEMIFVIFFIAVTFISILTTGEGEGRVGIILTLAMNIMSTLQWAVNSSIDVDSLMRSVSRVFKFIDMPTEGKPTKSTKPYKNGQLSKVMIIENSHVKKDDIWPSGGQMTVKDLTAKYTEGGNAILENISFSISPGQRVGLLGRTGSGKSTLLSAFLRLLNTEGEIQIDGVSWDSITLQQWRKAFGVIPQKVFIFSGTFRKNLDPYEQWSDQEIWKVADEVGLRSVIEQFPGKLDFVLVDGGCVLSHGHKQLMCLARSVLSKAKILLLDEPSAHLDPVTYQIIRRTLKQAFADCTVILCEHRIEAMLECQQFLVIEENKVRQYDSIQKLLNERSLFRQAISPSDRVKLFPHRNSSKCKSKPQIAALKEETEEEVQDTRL

With `CC1(C)C[C@@H]2CN1c1nc(-n3ccc(OCCC4(C(F)(F)F)CC4)n3)ccc1C(=O)NS(=O)(=O)c1cccc(n1)NCCO2` (single isomer, unassigned) [Compound 75, 12,12-dimethyl-8-(3-{2-[1-(trifluoromethyl)cyclopropyl]ethoxy}-1H-pyrazol-1-yl)-15-oxa-2λ^6-thia-3,9,11,18,23-pentaazatetracyclo[17.3.1.111,14.05,10]tetracosa-1(22),5(10),6,8,19(23),20-hexaene-2,2,4-trione], the 50% effective concentration (EC50) was less than 1 µM and the “Max. Activity” value is recorded as “+++ (+++ is >60%)”.
On the same counts, the results for `Cc1c2cnn1CCCC[C@H]1CN(c3nc(-n4ccc(OCCC5(C(F)(F)F)CC5)n4)ccc3C(=O)NS2(=O)=O)C(C)(C)C1` (single isomer, unassigned) [Compound 80, 21,21,23-Trimethyl-4-(3-{2-[1-(trifluoromethyl)cyclopropyl]ethoxy}-1H-pyrazol-1-yl)-10λ^6-thia-1,3,9,13,14-pentaazatetracyclo[17.2.1.111,14.02,7]tricosa-2,4,6,11(23),12-pentaene-8,10,10-trione] are greater than 3 µM and “+ (+ is <30%)”.
On the same counts, the results for `Cc1c2cnn1CCCC[C@H]1CN(c3nc(-n4ccc(OCCC5(C(F)(F)F)CC5)n4)ccc3C(=O)NS2(=O)=O)C(C)(C)C1` (single isomer, unassigned) [Compound 81, 21,21,23-trimethyl-4-(3-{2-[1-(trifluoromethyl)cyclopropyl]ethoxy}-1H-pyrazol-1-yl)-10λ^6-thia-1,3,9,13,14-pentaazatetracyclo[17.2.1.111,14.02,7]tricosa-2,4,6,11(23),12-pentaene-8,10,10-trione] are less than 1 µM and “++ (++ is 30-60%)”.
On the same counts, the results for `CC1(C)C[C@H]2CCCCNc3cccc(n3)S(=O)(=O)NC(=O)c3ccc(-n4cc(OCCC5(C(F)(F)F)CC5)cn4)nc3N1C2` (single isomer, unassigned) [Compound 82, 12,12-Dimethyl-8-(4-{2-[1-(trifluoromethyl)cyclopropyl]ethoxy}-1H-pyrazol-1-yl)-2λ^6-thia-3,9,11,19,24-pentaazatetracyclo[18.3.1.111,14.05,10]pentacosa-1(23),5,7,9,20(24),21-hexaene-2,2,4-trione] are greater than 3 µM and “+ (+ is <30%)”.
`CC1(C)C[C@H]2CCCCNc3cccc(n3)S(=O)(=O)NC(=O)c3ccc(-n4cc(OCCC5(C(F)(F)F)CC5)cn4)nc3N1C2` (single isomer, unassigned) [Compound 83, 12,12-dimethyl-8-(4-{2-[1-(trifluoromethyl)cyclopropyl]ethoxy}-1H-pyrazol-1-yl)-2λ^6-thia-3,9,11,19,24-pentaazatetracyclo[18.3.1.111,14.05,10]pentacosa-1(23),5,7,9,20(24),21-hexaene-2,2,4-trione]: the EC50 is less than 1 µM and the “Max. Activity” value was “++ (++ is 30-60%)”.
On the same counts, the results for `CC1(C)C[C@H]2CCCCc3cccc(n3)S(=O)(=O)NC(=O)c3ccc(-n4ccc(OCCC5(C(F)(F)F)CC5)n4)nc3N1C2` (single isomer, unassigned) [Compound 86, 12,12-dimethyl-8-(3-{2-[1-(trifluoromethyl)cyclopropyl]ethoxy}-1H-pyrazol-1-yl)-2λ^6-thia-3,9,11,23-tetraazatetracyclo[17.3.1.111,14.05,10]tetracosa-1(23),5,7,9,19,21-hexaene-2,2,4-trione] are greater than 3 µM and “+ (+ is <30%)”.
Consider `CC1(C)C[C@H]2CCCCc3cccc(n3)S(=O)(=O)NC(=O)c3ccc(-n4ccc(OCCC5(C(F)(F)F)CC5)n4)nc3N1C2` (single isomer, unassigned) [Compound 87, 12,12-dimethyl-8-(3-{2-[1-(trifluoromethyl)cyclopropyl]ethoxy}-1H-pyrazol-1-yl)-2λ^6-thia-3,9,11,23-tetraazatetracyclo[17.3.1.111,14.05,10]tetracosa-1(23),5,7,9,19,21-hexaene-2,2,4-trione], for which the concentration giving a half-maximal response (EC50) is less than 1 µM and the “Max. Activity” value was “+++ (+++ is >60%)”.
In the same order, the values of `Cc1nn2cc1S(=O)(=O)NC(=O)c1ccc(-n3ccc(OCCC4(C(F)(F)F)CC4)n3)nc1N1C[C@H](CCCC2)CC1(C)C` (single isomer, unassigned) [Compound 91, 12,21,21-Trimethyl-4-(3-{2-[1-(trifluoromethyl)cyclopropyl]ethoxy}-1H-pyrazol-1-yl)-10λ^6-thia-1,3,9,13,14-pentaazatetracyclo[17.2.1.111,14.02,7]tricosa-2,4,6,11(23),12-pentaene-8,10,10-trione] are greater than 3 µM and “+ (+ is <30%)”.
`Cc1nn2cc1S(=O)(=O)NC(=O)c1ccc(-n3ccc(OCCC4(C(F)(F)F)CC4)n3)nc1N1C[C@H](CCCC2)CC1(C)C` (single isomer, unassigned) [Compound 92, 12,21,21-trimethyl-4-(3-{2-[1-(trifluoromethyl)cyclopropyl]ethoxy}-1H-pyrazol-1-yl)-10λ^6-thia-1,3,9,13,14-pentaazatetracyclo[17.2.1.111,14.02,7]tricosa-2,4,6,11(23),12-pentaene-8,10,10-trione]: the EC50 was less than 1 µM and the “Max. Activity” value is reported as “++ (++ is 30-60%)”.
For the molecule `CC1(C)C[C@H]2CCCCOc3ccc(cc3)S(=O)(=O)NC(=O)c3ccc(-n4ccc(OCCC5(C(F)(F)F)CC5)n4)nc3N1C2` (single isomer, unassigned) [Compound 95, 12,12-dimethyl-8-(3-{2-[1-(trifluoromethyl)cyclopropyl]ethoxy}-1H-pyrazol-1-yl)-19-oxa-2λ^6-thia-3,9,11-triazatetracyclo[18.2.2.111,14.05,10]pentacosa-1(22),5,7,9,20,23-hexaene-2,2,4-trione], the EC50 was less than 1 µM and the “Max. Activity” value was “++ (++ is 30-60%)”.
In the same order, the values of `CC1(C)C[C@H]2CCCCOc3ccc(cc3)S(=O)(=O)NC(=O)c3ccc(-n4ccc(OCCC5(C(F)(F)F)CC5)n4)nc3N1C2` (single isomer, unassigned) [Compound 96, 12,12-dimethyl-8-(3-{2-[1-(trifluoromethyl)cyclopropyl]ethoxy}-1H-pyrazol-1-yl)-19-oxa-2λ^6-thia-3,9,11-triazatetracyclo[18.2.2.111,14.05,10]pentacosa-1(22),5,7,9,20,23-hexaene-2,2,4-trione] are greater than 3 µM and “+ (+ is <30%)”.
On the same counts, the results for `CC1(C)C[C@H]2CCCOc3ccc(cc3)S(=O)(=O)NC(=O)c3ccc(-n4ccc(OCCC5(C(F)(F)F)CC5)n4)nc3N1C2` (single isomer, unassigned) [Compound 99, 12,12-dimethyl-8-(3-{2-[1-(trifluoromethyl)cyclopropyl]ethoxy}-1H-pyrazol-1-yl)-18-oxa-2λ^6-thia-3,9,11-triazatetracyclo[17.2.2.111,14.05,10]tetracosa-1(21),5,7,9,19,22-hexaene-2,2,4-trione] are less than 1 µM and “+++ (+++ is >60%)”.
